What was measured:
myocardial fibroblasts = test: TGFβ administration to myocardial fibroblasts pretreated with IFNγ; format: cell-based
Procedure: The changes in expression levels of proteins when TGFβ was administered to myocardial fibroblasts pretreated with IFNγ were evaluated.
FIG. 39(a) is a western blot showing the expression levels of proteins (pSmad2, Smad2, pSmad3, and Smad3) when TGFβ was administered to myocardial fibroblasts pretreated with IFNγ (n=4). FIG. 39(b) is a graph quantifying the results of FIG. 39(a). The dose of IFNγ used for the pretreatment is 0, 1, 10, or 50 ng/mL, and the dose of TGFβ is 10 ng/mL. In the control group (CTL), neither IFNγ nor TGFβ was administered. Each graph is shown as a relative value in which the phosphorylation ratio (for example, pSmad2Smad2) in the CTL group is set to 1.0. When TGFβ was administered, Smad2 and Smad3 were phosphorylated, and the expression levels of pSmad2 and pSmad3 were increased.
FIG. 39(c) is a graph showing the expression levels of proteins (Ctgf, Col1a, and Col3a) when TGFβ was administered to myocardial fibroblasts pretreated with IFNγ (n=3 to 6). The dose of IFNγ used for the pretreatment is 0, 1, 10, or 50 ng/mL, and the dose of TGFβ is 10 ng/mL. Each graph is shown as a relative value in which the phosphorylation ratio (for example, pSmad2Smad2) in the CTL group is set to 1.0. In the graph, ** represents P<0.01, which is at a significant level with respect to the expression level of the CTL group.

[1] = test system: mice with DOX cardiomyopathy; test: Effect of αGalCer on DOX mice: cardiac function and inflammatory cytokines; format: in vivo; conditions: for apoptosis of myocardial cells (TUNEL staining) / left ventricular end-systolic dimension (LVDs) / left ventricular fractional shortening rate (FS): DOX group or GalCer+DOX group; for WH/TL and LV/TL: DOX group vs Control, GalCer+DOX group vs DOX group
Procedure: 10-week-old male C57BL/6J mice were divided into four groups of a Control group, a GalCer group, a DOX group, and a GalCer+DOX group. Hereinafter, the administration method will be described by setting the day when doxorubicin was initially administered as Day 0 (FIG. 4(a)).
PBS (phosphate buffered saline) was intraperitoneally administered (ip) and physiological saline was intravenously administered to the mice of the Control group on Day-7 (7 days before Day 0).
αGalCer (0.1 μg/g) was intraperitoneally administered (ip) to the mice of the GalCer group on Day-7, and physiological saline was intravenously administered thereto on Days 0, 2, and 4.
PBS was intraperitoneally administered (ip) to the mice of the DOX group on Day-7, and doxorubicin (6 mg/kg) was intravenously administered thereto on Days 0, 2, and 4.
αGalCer (0.1 μg/g) was intraperitoneally administered (ip) to the mice of the Galfer+DOX group on Day-7, and doxorubicin (6 mg/kg) was intravenously administered thereto on Days 0, 2, and 4.
The body weight, the blood pressure, the echocardiogram, the organ weight, the expression level of Vα14Jα18, the cardiac function, and inflammatory cytokines of each mouse at the time point of Day 14 were evaluated. Echocardiography was performed by anesthetizing mice with pentobarbital using an ultrasonic recording device EUB-8000 (trade name of Hitachi Medical Corporation). The left ventricular end-diastolic dimension and the left ventricular systolic end-systolic dimension were measured from the echo image, and the left ventricular fractional shortening rate serving as an index of the left ventricular contractility was calculated by an expression of “(left ventricular end-diastolic dimension—left ventricular systolic end-systolic dimension)left ventricular end-diastolic dimension×100”.

male C57BL6J mice = test: Doxorubicin-induced cardiomyopathy model mice (DOX mouse): body weight, echocardiography, NKT cells and inflammatory cytokines in myocardium; format: in vivo
Procedure: Doxorubicin (6 mg/kg) was intravenously administered to male
C57BL6J mice aged 10 to 11 weeks from the tail vein once every two days. That is, in a case where the day when doxorubicin was initially administered was set to Day 0, doxorubicin was injected on Day 2 and Day 4 (total of 3 times of administration). At each time point of Day 0, 7, 14, 21, and 28, weight measurement and echocardiography were performed to evaluate the amounts of NKT cells and the expression levels of inflammatory cytokines in the myocardium.

[2] = test system: mice with DOX cardiomyopathy; test: Effect of αGalCer on DOX mice: cardiac function and inflammatory cytokines; format: in vivo; conditions: Days 7 and 14
humans = conditions: systemically administered to humans; cited from earlier work
Balb/c mice = test: Difference between α-GalCer administration and α-GalCer/DC administration (western blotting of Stat1, Stat6); format: in vivo; conditions: only α-GalCer administered, 4 days
Procedure: The differences in expression levels of proteins Stat1 and Stat6 and degrees of phosphorylation in a case where only α-GalCer was administered and in a case where DC was administered as a carrier (that is, α-GalCer/DC was administered, the number of administered cells: 3×10^6) were evaluated by western blotting.
In the test, α-GalCer alone or α-GalCer/DC was administered to the Balb/c mice, and the expression level of each protein in the myocardium 4 days after the administration was evaluated by western blotting.

[3] = test system: primary cultured myocardial fibroblasts; test: Stat expression and phosphorylation in myocardial fibroblasts treated with IFNγ, IL4 or IL10; format: cell-based; conditions: vs CTL
Procedure: The primary cultured myocardial fibroblasts were treated with IFNγ, IL4, or IL10, and each of the expression levels of proteins (Stat1, Stat6, and Stat3) and the phosphorylation thereof were evaluated.

[4] = test system: inflammatory cells; myocardial cells; test: Cell death after IFNγ administration to inflammatory cells or myocardial cells; format: cell-based
[5] = test system: primary cultured myocardial fibroblasts; test: Fibrosis gene expression in myocardial fibroblasts after IFNγ, IL4 or IL10; format: cell-based; conditions: 1, 10, and 50 ng/mL, vs non-administration group (Veh)
Procedure: The changes in expression levels of genes (Ctgf Col1a, and Col3a) involved in fibrosis after IFNγ, IL4, or IL10 was administered to primary cultured myocardial fibroblasts were evaluated in order to investigate the mechanism by which the TGF β-Smad signaling system was inhibited due to the administration of α-GalCer/DC (number of administered cells: 3×10^6).
FIG. 38 is a graph showing changes in the expression levels of genes (Ctgf, Col1a, and Col3a) after the administration of IFNγ, IL4, or IL10 to myocardial fibroblasts. IFNγ, IL4, and IL10 were respectively administered at concentrations of 1, 10, and 50 ng/mL. Rps18 was used as an intrinsic control. “Veh” in the graphs represents a non-administration group (Vehicle).

[6] = test system: cultured myocardial cells; test: IFN-γ stimulation of cultured myocardial cells, pPLN and p-Stat1 (SDS-PAGE); format: cell-based
Procedure: The cultured myocardial cells were stimulated by adding IFN-γ solutions with three different concentrations (1, 10, and 50 ng/mL), and changes in concentration of pPLN were evaluated by ^-the SDS-PAGE method.
The cultured myocardial cells were stimulated by adding 50 ng/mL of an IFN-γ solution, and a change in concentration of pPLN over time was evaluated by the SDS-PAGE method.

[7] = test system: primary cultured offspring rat myocardial cells; test: Stat phosphorylation in primary cultured offspring rat myocardial cells after IFNγ, IL4 or IL10; format: cell-based
Procedure: IFNγ, IL4 or IL10 was administered to primary cultured offspring rat myocardial cells, and the changes in phosphorylation of proteins (Stat1, Stat6, and Stat3) were evaluated.

[8] = test system: offspring rat myocardial cells; test: Changes in expression levels of Angpt1 due to cytokine administration; format: cell-based; conditions: vs CTL group
Procedure: The changes in the expression levels of an angiogenic factor Angpt1 after administration of IFNγ, IL4, or IL10 to offspring rat myocardial cells were evaluated (each n=3).

[9] = doxorubicin 6 mg/kg iv Days 0, 2, 4, Days 0 to 28
[10] = IFNγ pretreatment 1, 10, or 50 ng/mL, then TGFβ 10 ng/mL

For TGFβ, the “expression levels of Ctgf, Col1a, and Col3a” value (myocardial fibroblasts; TGFβ 10 ng/mL, no pretreatment) was “increased” and the “expression levels of pSmad2 and pSmad3” value (myocardial fibroblasts; TGFβ 10 ng/mL, no pretreatment) was “increased”.

For COc1cccc2c1C(=O)c1c(O)c3c(c(O)c1C2=O)C[C@@](O)(C(=O)CO)C[C@@H]3O[C@H]1C[C@H](N)[C@H](O)[C@H](C)O1 [doxorubicin], the “apoptosis of myocardial cells (TUNEL staining)” value [1] was “observed”, the “left ventricular end-systolic dimension (LVDs)” value ([1]; Day 14) was “large” and the “left ventricular fractional shortening rate (FS)” value ([1]; Day 14) was “small”. For the same molecule, the “WH/TL and LV/TL” value ([1]; Day 14) was “significantly reduced”, the “expression level of IL-6” value (male C57BL6J mice; Day 7, vs Control) was “significantly increased” and the “expression levels of IL-1β and TNF-α” value (male C57BL6J mice; Day 7, vs Control) was “decreased”. The “expression levels of IL-1β, IL-6, and TNF-α” value (male C57BL6J mice; Day 14, vs doxorubicin non-administration group) was “all significantly increased”, the “expression level of Vα14Jα18” value (male C57BL6J mice; Days 7 and 14, Control set to 1) was “decreased” and the “body weight (BW)” value (male C57BL6J mice; [9]) was “reduced after Day 7 tended to gradually increase”. The “left ventricular fractional shortening rate (FS)” value (male C57BL6J mice; [9]) was “not improved”.

With CCCCCCCCCCCCCCCCCCCCCCCCCC(=O)N[C@@H](CO[C@H]1O[C@H](CO)[C@H](O)[C@H](O)[C@H]1O)[C@H](O)[C@H](O)CCCCCCCCCCCCCC [αGalCer, α-Galactosylceramide] the “apoptosis of myocardial cells (TUNEL staining)” value [1] was “inhibited”, the “left ventricular end-systolic dimension (LVDs)” value ([1]; Day 14) was “improved to the same extent as the mice in the other groups” and the “left ventricular fractional shortening rate (FS)” value ([1]; Day 14) was “improved to the same extent as the mice in the other groups”. The “WH/TL and LV/TL” value ([1]; Day 14) was “improved”, the “increase of expression level of Vα14Jα18” value ([1]; αGalCer 0.1 μg/g ip Day-7, mice with DOX cardiomyopathy, Day 14) was “approximately 10.6 times” and the “expression level of IFNγ” value [2] was “increased”. The “expression levels of inflammatory cytokines” value [2] was “without decreasing”, the liver damage (humans) was “serious liver damage” and the “activation reaction of Stat1 in the myocardium” value (Balb/c mice) was “extremely weak”. The “dose dependence of Stat1 activation” value (Balb/c mice) was “not observed”.

With “IFNγ: interferon (IFN)-γ, cytokine added to cultured cells” the “expression levels and phosphorylation of Stat1” value [3] was “increased”, the “cell death of inflammatory cells” value [4] was “easily caused cell death” and the “expression levels of genes (Ctgf, Col1a, and Col3a)” value (shortened to “expression levels of genes”) [5] was “significantly decreased in a dose-dependent manner”. For the same molecule, the p-Stat1 over time ([6]; IFN-γ 50 ng/mL) was “increased immediately after the stimulation”, the pPLN over time ([6]; IFN-γ 50 ng/mL) was “phosphorylated with a slight delay” and the “phosphorylation of PLN” value ([6]; IFN-γ 1, 10, and 50 ng/mL) was “phosphorylated”. The “phosphorylation of Stat1 by αGalCer/DC observed in myocardial tissues, reproduction in cultured myocardial cells” value (from here on “phosphorylation … in cultured myocardial cells”) [7] was “reproduced”, the “expression levels of Angpt1” value [8] was “increased in a dose-dependent manner” and the “increase in expression levels of Ctgf, Col1a, and Col3a due to TGFβ” value (myocardial fibroblasts; [10]) was “inhibited in a dose-dependent manner”. For the same molecule, the “phosphorylation ratio of Smad2 and Smad3” value (myocardial fibroblasts; [10]) was “decreased in a dose-dependent manner”.

B1: IL4: interleukin-4, cytokine added to cultured cells (protein, UniProt P05112 25-153, looked up)
Interleukin-4: HKCDITLQEIIKTLNSLTEQKTLCTELTVTDIFAASKNTTEKETFCRAATVLRQFYSHHEKDTRCLGATAQQFHRHKQLIRFLKRLDRNLWGLAGLNSCPVKEANQSTLENFLERLKTIMREKYSKCSS
For B1, the “phosphorylation of Stat6” value [3] was “increased in a dose-dependent manner”, the “expression levels of genes” value [5] was “the same as those in the non-administration group” and the “phosphorylation … in cultured myocardial cells” value [7] was “reproduced”. The “expression levels of Angpt1” value [8] was “not increased”.

B2: IFNγ: interferon (IFN)-γ, cytokine added to cultured cells (protein, UniProt P01579 24-161, looked up)
Interferon gamma: QDPYVKEAENLKKYFNAGHSDVADNGTLFLGILKNWKEESDRKIMQSQIVSFYFKLFKNFKDDQSIQKSVETIKEDMNVKFFNSNKKKRDDFEKLTNYSVTDLNVQRKAIHELIQVMAELSPAAKTGKRKRSQMLFRG
With B2 the “cell death of myocardial cells” value [4] was “did not cause cell death”.

B3: IL10: interleukin-10, cytokine added to cultured cells (protein, UniProt P22301 19-178, looked up)
Interleukin-10: SPGQGTQSENSCTHFPGNLPNMLRDLRDAFSRVKTFFQMKDQLDNLLLKESLLEDFKGYLGCQALSEMIQFYLEEVMPQAENQDPDIKAHVNSLGENLKTLRLRLRRCHRFLPCENKSKAVEQVKNAFNKLQEKGIYKAMSEFDIFINYIEAYMTMKIRN
For B3, the “phosphorylation of Stat6” value [3] was “not found”, the “expression levels of genes” value [5] was “the same as those in the non-administration group” and the “phosphorylation … in cultured myocardial cells” value [7] was “not reproduced”. The “expression levels of Angpt1” value [8] was “not increased”.
